Assays:
Arg261Gln (R261Q) PAH [1] = target: T1, Arg261Gln (R261Q) PAH (Homo sapiens (Human), UniProt P00439, R261Q); test: Thermal stability shift assay (DSF); format: binding; settings: compound 30 μM (BH4 43 μM)
Description: (§1) 1. Thermal Stability Shift Assay
(§2) Thórólfsson et al. (Biochemistry, 2002, 41(24), 7573-7585) describe that the thermal denaturation of hPAH occurs in three stages: (i) unfolding of the four regulatory domains, which is responsible for the low-temperature calorimetric transition (ii) unfolding of two (out of the four) catalytic domains, which is responsible for the high-temperature transition; and (iii) irreversible protein denaturation. The most important domain for stabilization is the regulatory domain.
(§3) Thus, to test the compound effect on thermal stability of the target protein a thermal stability shift assay (also called differential scanning fluorimetry (DSF)) was performed [Niesen F. H. et al., Nat Protoc., 2007, 2(9), 2212-2221; Gersting S. W. et al., Human Molecular Genetics, 2010, 19(10), 2039-2049; and Gersting S. W. et al., J. Biol Chem. 2010, 285(40), 30686-30697]. DSF monitors thermal unfolding of proteins in the presence of a fluorescent dye (SYPRO Orange; λexc=465 nm, λem=610 nm) and was performed using a real-time PCR instrument (Applied BioSystems 7000HT Fast Real-Time PCR System). Compounds that increase the midpoints of thermal denaturation (Tm) are considered to bind and stabilize the protein.
(§4) In brief, purified wild-type or Arg261Gln (which is the most frequent mutation responsive to BH4) PAH proteins (diluted in 20 mM NaHEPES, pH 7.0 and 200 mM NaCl, 2 mM DTT to 2 mg/ml) were used at a final concentration of 0.2 mg/ml protein per sample. The compounds were tested at a final concentration of 30 μM. A no compound control (NCC) was used according to the compound solvent at a final concentration of 2% (H2O, DMSO, ethanol, methanol). As a positive control we used the natural cofactor 6R-L-erythro-5,6,7,8-tetrahydrobiopterin (BH4, CAS 69056-38-8) stabilized in 100 mM dithiothreitol (DTT), in a final concentration of 43 μM. To exclude unspecific effects of the compound to the dye, a no protein control (NPC) was added (buffer, compound, dye). The measurement was performed in duplicates and samples were denatured by scanning a temperature range of 20 to 75° C. at a scan rate of 0.5° C./min.
(§5) The data was normalized and the respective Tm values were calculated by bi-phasic equation to determine temperatures at which half denaturation occurred (Software GraphPadPrism). To identify compound specific effects on the thermal stability of the target protein, the reference Tm (NCC) was used to calculate the temperature shift between compound treated and not treated protein (Tm−TmNCC), from duplicates, to provide transition midpoints shifts (ΔTm1 and ΔTm2). Tm1 and Tm2 are the two different transition mid point of the unfolding process of the protein as the tetrameric protein PAH unfolds in two steps due to its domains. A shift in Tm1 of 2° C. reflects a relevant increase in thermal stability on the regulatory domain and, thus, is considered a positive result.

wild-type PAH [2] = target: T2, wild-type PAH (Homo sapiens (Human), UniProt P00439); test: Thermal stability shift assay (DSF); format: binding; settings: compound 30 μM (BH4 43 μM)
Description: as §1, §2, §3, §4, §5

Arg261Gln (R261Q) PAH [3] = target: T1, Arg261Gln (R261Q) PAH; test: Phenylalanine hydroxylase residual protein amount (dot blot, COS-7 lysates); format: cell-based; settings: COS-7 cells, compound 10 μM (sepiapterin 5 μM), 48 h; read-out: PAH protein level (immune blot signal) R261Q PAH Mean
Protocol: (§6) 3. Phenylalanine Hydroxylase Residual Protein Amount
(§7) The analysis of the residual PAH protein amount was based on the method described in Gersting S. W. et al., Human Molecular Genetics, 2010, 19(10), 2039-2049 with modifications.
(§8) Detection of the residual PAH protein amount was performed as a dot blot using the lysates obtained from the cell culture where transiently transfected COS-7 cells (with wild-type PAH or PAH variant) were exposed for 48 h to compounds. The experiment was carried out from the same samples as used for measuring enzyme activities.
(§9) 2 μl of the lysate were dropped onto the nitrocellulose membrane. The membrane was allowed to air dry at room temperature for 30 min followed by 40 min blocking in 5% milk in TBS-Tween (room temperature). The membrane was incubated with the mouse monoclonal primary antibody specific for PAH (Millipore, Cat. No. MAB5278, 1:1000 dilution in 5% milk in TBS-Tween) for overnight at 4° C. Next, the membrane was washed (3×10 min in TBS-Tween) and incubated with the secondary HRP-conjugated antibody (anti-mouse antibody; Santa Cruz Biotechnology, Inc., Cat. No. sc-2005; 1:1000 dilution in 5% milk in TBS-Tween) followed by thorough washing in TBS-Tween (3×10 min) and distilled water (1×10 min). Blots were visualized with Pierce™ ECL substrate (ThermoFisher Scientific, Cat No. 32106) and chemiluminescence was monitored with a DIANA III Imaging system or ChemiDoc™ MP Imaging System (BioRad). To analyze the compound effect on the PAH protein amount densitometry analysis was performed using ImageJ Software.
(§10) The effect of compound on PAH protein amount was calculated from triplicates. As for determination of the enzyme activity the background of the not transfected cells (NT) was subtracted from the transfected cells (NCC or compound treated). In the next step delta of the NCC versus compound treated cells was calculated. Residual protein amount greater than 100% represents an increase in the stability of the enzyme with respect to NCC.

wild-type PAH [4] = target: T2, wild-type PAH; test: as above; format: cell-based; settings: COS-7 cells, compound 10 μM (sepiapterin 5 μM), 48 h; read-out: PAH protein level (immune blot signal) WT PAH Mean
Protocol: as §6, §7, §8, §9, §10

[5] = shift of transition midpoint 1 vs NCC
[6] = shift of transition midpoint 2 vs NCC

T2 sequence (P00439 whole entry): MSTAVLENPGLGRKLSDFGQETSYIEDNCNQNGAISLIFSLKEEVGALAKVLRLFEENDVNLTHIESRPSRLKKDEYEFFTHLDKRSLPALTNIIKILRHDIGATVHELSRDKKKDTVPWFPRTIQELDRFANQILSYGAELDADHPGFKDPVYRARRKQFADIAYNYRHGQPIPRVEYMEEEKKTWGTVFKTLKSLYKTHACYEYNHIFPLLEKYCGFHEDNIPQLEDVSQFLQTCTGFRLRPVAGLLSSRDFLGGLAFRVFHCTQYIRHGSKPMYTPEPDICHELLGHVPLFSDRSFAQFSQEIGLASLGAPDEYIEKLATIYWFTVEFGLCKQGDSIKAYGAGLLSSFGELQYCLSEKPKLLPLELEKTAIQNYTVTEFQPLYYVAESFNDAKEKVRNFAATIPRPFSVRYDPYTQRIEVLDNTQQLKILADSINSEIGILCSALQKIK
T1 sequence (P00439 whole entry R261Q): as the sequence (P00439 whole entry) above, with R261Q counted along it

ΔTm1 R261Q PAH (Arg261Gln (R261Q) PAH [1]; [5]): 2.21 °C
ΔTm2 R261Q PAH (Arg261Gln (R261Q) PAH [1]; [6]): 2.82 °C
ΔTm1 WT PAH (wild-type PAH [2]; [5]): 0.33 °C
ΔTm2 WT PAH (wild-type PAH [2]; [6]): 3.23 °C
PAH protein level (% of control) at 10 µM (Arg261Gln (R261Q) PAH [3]): 130%
PAH protein level (% of control) at 10 µM (wild-type PAH [4]): 110%
SMILES: Nc1nc(N)c2nc(-c3ccccc3)c(N)nc2n1 [Triamterene, 2,4,7-triamino-6-phenylpteridine]

Source: patent US12257253B2, “Triamterene or nolatrexed for use in the treatment of phenylketonuria” (SOM INNOVATION BIOTECH, S.A., priority 2019, dated 2025)
